Where a name gives a salt, the structure may show the parent alone.
Test system: HT29
Conditions: 72 h, relative to DMSO, 10 µM, Relative cell viability (%)
Summary of the method: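 Cells were exposed to drug for 72 h, then to WST-1 for 2 h at 37 °C, and absorbance was read at 450 nm as viability against DMSO treatment. In the screen, each compound was applied at 10 µM.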

Row | SMILES | Relative cell viability (%)
1 | CC(C)NCC(O)COc1ccc(CCOCC2CC2)cc1 (stereo not shown) [Betaxolol] | 109.6%
2 | COc1ccc2nc([S@@+]([O-])Cc3ncc(C)c(OC)c3C)[nH]c2c1 [Esomeprazole Sodium] | 105.5%
3 | CC(C)NCC(O)COc1ccc(CCOCC2CC2)cc1 (stereo not shown) [Betaxolol hydrochloride (Betoptic)] | 100.8%
4 | C[C@@H]1CCN(C(=O)CC#N)C[C@@H]1N(C)c1ncnc2[nH]ccc12 [Tofacitinib (CP-690550,Tasocitinib)] | 51.94%
5 | N#CC[C@H](C1CCCC1)n1cc(-c2ncnc3[nH]ccc23)cn1 [Ruxolitinib (INCB018424)] | 77.41%
6 | COc1cc2nc(N3CCN(C(=O)C4CCCO4)CC3)nc(N)c2cc1OC (stereo not shown) [Terazosin] | 88.03%

Same assay, conditions: 72 h, relative to DMSO; 10 µM

Row | SMILES | Relative cell viability (%)
7 | CCCCCCCCCCCCCCCC(=O)O[C@@H]1[C@@H](O)[C@@H](O)[C@@H]([C@H](NC(=O)[C@@H]2C[C@@H](CCC)CN2C)[C@H](C)Cl)O[C@@H]1SC [Clindamycin palmitate HCl] | 40.29%
8 | NC(=O)c1ncn([C@@H]2O[C@H](CO)[C@@H](O)[C@H]2O)c1N [Acadesine] | 105.9%
9 | Cc1ccccc1C(OCCN(C)C)c1ccccc1 (stereo not shown) [Orphenadrine Citrate] | 102.4%
10 | Cc1nc(Nc2ncc(C(=O)Nc3c(C)cccc3Cl)s2)cc(N2CCN(CCO)CC2)n1 [Dasatinib Monohydrate] | 20.09%
11 | COc1nc(N)nc2c1ncn2[C@@H]1O[C@H](CO)[C@@H](O)[C@@H]1O [Nelarabine] | 86.76%
12 | C=CC(=O)Nc1cc(Nc2nccc(-c3cn(C)c4ccccc34)n2)c(OC)cc1N(C)CCN(C)C [AZD9291] | 0.8547%
13 | CCOC(=O)[C@H](CCc1ccccc1)N[C@H]1CS[C@H](c2cccs2)CN(CC(=O)O)C1=O [Temocapril HCl] | 117.3%
14 | CS(=O)(=O)c1ccc(C2=C(c3ccccc3)C(=O)OC2)cc1 [Rofecoxib] | 116%
15 | O=S(=O)(O)CCS [Mesna] | 56.36%
16 | CCc1oc2ccccc2c1C(=O)c1cc(Br)c(O)c(Br)c1 [Benzbromarone] | 82.12%
17 | COc1cc2c(cc1OC)[C@H]1CC(=O)[C@H](CC(C)C)CN1CC2 (racemic) [Tetrabenazine (Xenazine)] | 97.03%
18 | CC1=C(C(=O)OC(C)C)C(c2cccc([N+](=O)[O-])c2)C(C(=O)OC2CN(C(c3ccccc3)c3ccccc3)C2)=C(N)N1 (stereo not shown) [Azelnidipine] | 73.79%
19 | COc1cc([C@H]2Oc3cc([C@H]4Oc5cc(O)cc(O)c5C(=O)[C@@H]4O)ccc3O[C@@H]2CO)ccc1O [Silibinin] | 119.6%
20 | C=C[C@]1(C)C[C@@H](OC(=O)CSC(C)(C)CNC(=O)[C@H](N)C(C)C)[C@]2(C)[C@H](C)CC[C@]3(CCC(=O)[C@H]32)[C@@H](C)[C@@H]1O [Valnemulin HCl] | 68.48%
21 | O=C(O)c1cccnc1Nc1cccc(C(F)(F)F)c1 [Niflumic acid] | 95.63%
22 | C[C@@](Cc1ccc(O)c(O)c1)(NN)C(=O)O [Carbidopa] | 97.03%
23 | COc1ccccc1N1CCN(CC(O)COc2cccc3ccccc23)CC1 (stereo not shown) [Naftopidil] | 100.8%
24 | COc1c2occc2cc2ccc(=O)oc12 [Methoxsalen] | 170.4%
25 | CC(C)c1nc(N(C)S(C)(=O)=O)nc(-c2ccc(F)cc2)c1/C=C/[C@@H](O)C[C@@H](O)CC(=O)O [Rosuvastatin Calcium] | 120.2%
26 | COc1ccc([C@@H]2Sc3ccccc3N(CCN(C)C)C(=O)[C@@H]2OC(C)=O)cc1 [Diltiazem HCl] | 67.8%
27 | CCCCCCCN(CC)CCCC(O)c1ccc(NS(C)(=O)=O)cc1 (stereo not shown) [Ibutilide Fumarate] | 112%

Row | SMILES | Relative cell viability (%)
28 | CC1=C(CC(=O)O)c2cc(F)ccc2/C1=C\c1ccc([S+](C)[O-])cc1 (stereo not shown) [Sulindac] | 216.9%
29 | OC(CCCN1CCCCC1)(c1ccccc1)c1ccccc1 [Diphenidol HCl] | 59.39%
30 | O=C[C@H](O)[C@@H](O)[C@H](O)CO [Xylose] | 114.9%
31 | COc1cccc2c1C(=O)c1c(O)c3c(c(O)c1C2=O)C[C@@](O)(C(C)=O)C[C@@H]3O[C@H]1C[C@H](N)[C@H](O)[C@H](C)O1 [Daunorubicin HCl] | 12.62%
32 | O=C(NCCO[N+](=O)[O-])c1cccnc1 [Nicorandil] | 198.8%
33 | CN(C)CCC(c1ccc(Cl)cc1)c1ccccn1 (stereo not shown) [Chlorpheniramine Maleate] | 102.1%
34 | CC1CC(OC(=O)C(O)c2ccccc2)CC(C)(C)C1 (stereo not shown) [Cyclandelate] | 65.76%
35 | C[N+](C)(C)CCO [Choline Chloride] | 79.39%
36 | OCCN(CCO)c1nc(N2CCCCC2)c2nc(N(CCO)CCO)nc(N3CCCCC3)c2n1 [Dipyridamole] | 52.54%
37 | CCc1c2c(nc3ccc(OC(=O)N4CCC(N5CCCCC5)CC4)cc13)-c1cc3c(c(=O)n1C2)COC(=O)[C@]3(O)CC [Irinotecan HCl Trihydrate] | 113.8%
38 | CN1CCC(COc2cnc(-c3cccc(Cn4nc(-c5cccc(C#N)c5)ccc4=O)c3)nc2)CC1 [Tepotinib (EMD 1214063)] | 11.11%
39 | CCOC(=O)[C@H](CCc1ccccc1)N[C@@H](C)C(=O)N1Cc2cc(OC)c(OC)cc2C[C@H]1C(=O)O [Moexipril HCl] | 110.2%
40 | CN(C)CC/C=C1/c2ccccc2Sc2ccc(Cl)cc21 [Chlorprothixene] | 28.39%
41 | NC(=O)c1cccnc1 [Nicotinamide (Vitamin B3)] | 113.7%
42 | CNCC[C@H](Oc1cccc2ccccc12)c1cccs1 [Duloxetine HCl] | 99.61%
43 | CCCN(CCC)C(=O)C1=Cc2ccc(-c3ccc(C(=O)N4CCCC4)cc3)cc2N=C(N)C1 [Motolimod (VTX-2337)] | 31.62%
44 | C[C@H]1O[C@@H](n2cc(F)c(=O)[nH]c2=O)[C@H](O)[C@@H]1O [Doxifluridine] | 150.2%
45 | N#CC(c1ccc(Cl)cc1)c1c(Cl)cc(-n2ncc(=O)[nH]c2=O)cc1Cl (stereo not shown) [Diclazuril] | 219%
46 | Oc1cc(O)c(Cl)cn1 [Gimeracil] | 117.6%
47 | Nc1cc(C(Cl)=C(Cl)Cl)c(S(N)(=O)=O)cc1S(N)(=O)=O [Clorsulon] | 49.03%
48 | Cn1c(=O)cc(N2CCC[C@@H](N)C2)n(Cc2cc(F)ccc2C#N)c1=O [Trelagliptin] | 63.68%

Row | SMILES | Relative cell viability (%)
49 | Cc1ccc(-n2nc(C(C)(C)C)cc2NC(=O)NCc2cc(F)ccc2Oc2ccc3c(cnn3CCO)c2)cc1 [Pexmetinib (ARRY-614)] | 47.01%
50 | CCOc1nc2cccc(C(=O)O)c2n1Cc1ccc(-c2ccccc2-c2noc(=O)[nH]2)cc1 [Azilsartan] | 73.79%
51 | NC(=O)[C@@H](CCC(F)(F)F)N(Cc1ccc(-c2ncon2)cc1F)S(=O)(=O)c1ccc(Cl)cc1 [Avagacestat (BMS-708163)] | 74.3%
52 | CCCCc1nc(Cl)c(CO)n1Cc1ccc(-c2ccccc2-c2nn[nH]n2)cc1 [Losartan Potassium (DuP 753)] | 88.32%
53 | C[C@@H]1CCO[C@H]2Cn3cc(C(=O)NCc4ccc(F)cc4F)c(=O)c(O)c3C(=O)N12 [Dolutegravir (GSK1349572)] | 70.87%
54 | CC(=O)OCC(=O)[C@@]12N=C(C)O[C@@H]1C[C@H]1[C@@H]3CCC4=CC(=O)C=C[C@]4(C)[C@H]3[C@@H](O)C[C@@]12C [Deflazacort] | 91.95%
55 | CO/N=C(\C(=O)N[C@@H]1C(=O)N2C(C(=O)OCOC(=O)C(C)(C)C)=C(/C=C\c3scnc3C)CS[C@H]12)c1csc(N)n1 [Cefditoren Pivoxil] | 66.53%
56 | COc1cc(NS(=O)(=O)c2ccc(N)cc2)nc(OC)n1 [Sulphadimethoxine] | 86.06%
57 | C[C@]12C=CC(=O)C=C1CC[C@H]1[C@@H]3C[C@@H](O)[C@](O)(C(=O)CO)[C@@]3(C)C[C@H](O)[C@@]12F [Triamcinolone] | 171.8%
58 | CCOc1cc2ncc(C#N)c(Nc3ccc(OCc4ccccn4)c(Cl)c3)c2cc1NC(=O)/C=C/CN(C)C [Neratinib (HKI-272)] | 97.84%
59 | CC(=O)O[C@@]12CO[C@@H]1C[C@H](O)[C@@]1(C)C(=O)[C@H](O)C3=C(C)[C@@H](OC(=O)[C@H](O)[C@@H](NC(=O)OC(C)(C)C)c4ccccc4)C[C@@](O)([C@@H](OC(=O)c4ccccc4)[C@H]21)C3(C)C [Docetaxel Trihydrate] | 23.93%
60 | Cc1ccc(-c2cc(C(F)(F)F)nn2-c2ccc(S(N)(=O)=O)cc2)cc1 [Celecoxib] | 69.63%
61 | C[C@@H](O)[C@H]1C(=O)N2C(C(=O)O)=C(S[C@@H]3CN[C@H](C(=O)N(C)C)C3)[C@H](C)[C@H]12 [Meropenem] | 72.74%
62 | C/C(=C\C(=O)OCCCCCCCCC(=O)O)C[C@@H]1OC[C@H](C[C@@H]2O[C@H]2[C@@H](C)[C@H](C)O)[C@@H](O)[C@H]1O [Mupirocin] | 92.12%
63 | CN1CCN(c2ccc(C(=O)Nc3n[nH]c4ccc(Cc5cc(F)cc(F)c5)cc34)c(NC3CCOCC3)c2)CC1 [Entrectinib (RXDX-101)] | 2.137%
64 | COc1cc2c(cc1OC)CC(=O)N(CCCN(C)C[C@H]1Cc3cc(OC)c(OC)cc31)CC2 [Ivabradine HCl] | 110.8%
65 | C[C@H](CCC(=O)O)[C@H]1CC[C@H]2[C@@H]3CC[C@@H]4C[C@H](O)CC[C@]4(C)[C@H]3C[C@H](O)[C@]12C [Deoxycholic acid] | 90.6%
66 | Cc1ccc([C@@H]2O[C@H](CO)[C@@H](O)[C@H](O)[C@H]2O)cc1Cc1ccc(-c2ccc(F)cc2)s1 [Canagliflozin] | 72.33%
67 | CC(N)C12CC3CC(CC(C3)C1)C2 (stereo not shown) [Rimantadine] | 127.5%
